# Experiments:
# ENR+CD organoids = assay: Primary screen: ATP (CellTiter-Glo 3D, CTG) cell number/viability, 2.5-D 384-well ENR+CD organoids; settings: primary screen; for Z.CTG: standard z score;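 for all read-outs here: compounds given at plating and again on day 3 over a 6-day differentiation from ENR+CV stem-cell-enriched precursors, ATP measured on day 6, plate median as control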
# [1] = tested on: ENR+CD organoids (ISC to Paneth cell differentiation); assay: Primary screen: basal (non-stimulated) lysozyme secretion LYZ.NS, 2.5-D 384-well ENR+CD organoid differentiation; format: cell-based, mouse; settings: primary screen; for Z.LYZ.NS: standard z score
# From the text: (§1) High-throughput screening.
# [2] = tested on: ENR+CD organoids (ISC to Paneth cell differentiation); assay: Primary screen: CCh-stimulated lysozyme secretion LYZ.S, 2.5-D 384-well ENR+CD organoid differentiation; format: cell-based, mouse; settings: primary screen
# From the text: as §1
# [3] = dose 0.08 uM, FC vs plate median
# [4] = dose 0.40 uM, FC vs plate median
# [5] = dose 2.00 uM, FC vs plate median
# [6] = dose 10.00 uM, FC vs plate median
# [7] = dose 0.08 uM, FC relative to plate median
# [8] = dose 0.40 uM, FC relative to plate median
# [9] = dose 2.00 uM, FC relative to plate median
# [10] = dose 10.00 uM, FC relative to plate median
smiles,measurement,setting,value
CCc1cc(Nc2nccc(-c3c(-c4ccc(OC)c(C(=O)Nc5c(F)cccc5F)c4)nc4ccccn34)n2)c(OC)cc1N1CCC(N2CCN(S(C)(=O)=O)CC2)CC1 [GSK1904529A],Dose.FC.CTG (log2 fold change),ENR+CD organoids; dose 0.08 uM,0.202
same,Z.CTG (standard z score),ENR+CD organoids; dose 0.08 uM,0.484
same,Dose.FC.CTG (log2 fold change),ENR+CD organoids; dose 0.40 uM,−0.071
same,Z.CTG (standard z score),ENR+CD organoids; dose 0.40 uM,−0.170
same,Dose.FC.CTG (log2 fold change),ENR+CD organoids; dose 2.00 uM,−0.570
same,Z.CTG (standard z score),ENR+CD organoids; dose 2.00 uM,−1.361
same,Dose.FC.CTG (log2 fold change),ENR+CD organoids; dose 10.00 uM,−0.691
same,Z.CTG (standard z score),ENR+CD organoids; dose 10.00 uM,−1.649
same,Dose.FC.LYZ.NS (log2 fold change),[1]; dose 0.08 uM,0.102
same,Z.LYZ.NS (standard z score),[1]; dose 0.08 uM,0.890
same,Dose.FC.LYZ.NS (log2 fold change),[1]; dose 0.40 uM,0.112
same,Z.LYZ.NS (standard z score),[1]; dose 0.40 uM,0.977
same,Dose.FC.LYZ.NS (log2 fold change),[1]; dose 2.00 uM,−0.179
same,Z.LYZ.NS (standard z score),[1]; dose 2.00 uM,−1.557
same,Dose.FC.LYZ.NS (log2 fold change),[1]; dose 10.00 uM,−0.163
same,Z.LYZ.NS (standard z score),[1]; dose 10.00 uM,−1.419
same,Dose.FC.LYZ.S (log2 fold change),[2]; dose 0.08 uM,0.133
same,Dose.FC.LYZ.S (log2 fold change),[2]; dose 0.40 uM,−0.047
same,Dose.FC.LYZ.S (log2 fold change),[2]; dose 2.00 uM,−0.225
same,Dose.FC.LYZ.S (log2 fold change),[2]; dose 10.00 uM,−0.276
CC(C)c1ccc(NC(=O)Cn2cnc3c2c(=O)n(C)c(=O)n3C)cc1 [HC-030031],Dose.FC.CTG (log2 fold change),ENR+CD organoids; dose 0.08 uM,0.082
same,Z.CTG (standard z score),ENR+CD organoids; dose 0.08 uM,0.195
same,Dose.FC.CTG (log2 fold change),ENR+CD organoids; dose 0.40 uM,0.191
same,Z.CTG (standard z score),ENR+CD organoids; dose 0.40 uM,0.457
same,Dose.FC.CTG (log2 fold change),ENR+CD organoids; dose 2.00 uM,−0.008
same,Z.CTG (standard z score),ENR+CD organoids; dose 2.00 uM,−0.019
same,Dose.FC.CTG (log2 fold change),ENR+CD organoids; dose 10.00 uM,−0.241
same,Z.CTG (standard z score),ENR+CD organoids; dose 10.00 uM,−0.575
same,Dose.FC.LYZ.NS (log2 fold change),[1]; dose 0.08 uM,0.063
same,Z.LYZ.NS (standard z score),[1]; dose 0.08 uM,0.547
same,Dose.FC.LYZ.NS (log2 fold change),[1]; dose 0.40 uM,0.033
same,Z.LYZ.NS (standard z score),[1]; dose 0.40 uM,0.291
same,Dose.FC.LYZ.NS (log2 fold change),[1]; dose 2.00 uM,−0.007
same,Z.LYZ.NS (standard z score),[1]; dose 2.00 uM,−0.057
same,Dose.FC.LYZ.NS (log2 fold change),[1]; dose 10.00 uM,−0.047
same,Z.LYZ.NS (standard z score),[1]; dose 10.00 uM,−0.411
same,Dose.FC.LYZ.S (log2 fold change),[2]; dose 0.08 uM,0.090
same,Dose.FC.LYZ.S (log2 fold change),[2]; dose 0.40 uM,0.097
same,Dose.FC.LYZ.S (log2 fold change),[2]; dose 2.00 uM,−0.035
same,Dose.FC.LYZ.S (log2 fold change),[2]; dose 10.00 uM,0.077
Cc1sc2c(c1C)C(c1ccc(Cl)cc1)=N[C@@H](CC(=O)Nc1ccc(O)cc1)c1nnc(C)n1-2 [OTX015],Dose.FC.CTG,ENR+CD organoids; [3],−0.038 log2 fold change
same,Dose.FC.CTG,ENR+CD organoids; [4],−0.398 log2 fold change
same,Dose.FC.CTG,ENR+CD organoids; [5],−0.686 log2 fold change
same,Dose.FC.CTG,ENR+CD organoids; [6],−0.908 log2 fold change
same,Z.LYZ.NS,[1]; dose 0.08 uM,−1.726
same,Z.LYZ.NS,[1]; dose 0.40 uM,−2.317
same,Z.LYZ.NS,[1]; dose 2.00 uM,−2.082
same,Z.LYZ.NS,[1]; dose 10.00 uM,−2.225
same,Dose.FC.LYZ.NS,[1]; [3],−0.198 log2 fold change
same,Dose.FC.LYZ.NS,[1]; [4],−0.266 log2 fold change
same,Dose.FC.LYZ.NS,[1]; [5],−0.239 log2 fold change
same,Dose.FC.LYZ.NS,[1]; [6],−0.256 log2 fold change
same,Dose.FC.LYZ.S,[2]; [3],−0.279 log2 fold change
same,Dose.FC.LYZ.S,[2]; [4],−0.350 log2 fold change
same,Dose.FC.LYZ.S,[2]; [5],−0.350 log2 fold change
same,Dose.FC.LYZ.S,[2]; [6],−0.362 log2 fold change
Oc1ncnc2[nH]ncc12 [Allopurinol],Dose.FC.CTG,ENR+CD organoids; dose 0.08 uM,0.212 log2 fold change
same,Dose.FC.CTG,ENR+CD organoids; dose 0.40 uM,−0.098 log2 fold change
same,Dose.FC.CTG,ENR+CD organoids; dose 2.00 uM,−0.162 log2 fold change
same,Dose.FC.CTG,ENR+CD organoids; dose 10.00 uM,−0.454 log2 fold change
same,Dose.FC.LYZ.NS,[1]; dose 0.08 uM,0.019 log2 fold change
same,Z.LYZ.NS (standard z score),[1]; dose 0.08 uM,0.168
same,Dose.FC.LYZ.NS,[1]; dose 0.40 uM,−0.036 log2 fold change
same,Z.LYZ.NS (standard z score),[1]; dose 0.40 uM,−0.314
same,Dose.FC.LYZ.NS,[1]; dose 2.00 uM,−0.004 log2 fold change
same,Z.LYZ.NS (standard z score),[1]; dose 2.00 uM,−0.036
same,Dose.FC.LYZ.NS,[1]; dose 10.00 uM,−0.051 log2 fold change
same,Z.LYZ.NS (standard z score),[1]; dose 10.00 uM,−0.442
same,Dose.FC.LYZ.S,[2]; dose 0.08 uM,0.026 log2 fold change
same,Dose.FC.LYZ.S,[2]; dose 0.40 uM,−0.086 log2 fold change
same,Dose.FC.LYZ.S,[2]; dose 2.00 uM,−0.064 log2 fold change
same,Dose.FC.LYZ.S,[2]; dose 10.00 uM,−0.119 log2 fold change
Cc1nnc(C(=O)NC(C)(C)c2nc(C(=O)NCc3ccc(F)cc3)c(O)c(=O)n2C)o1 [Raltegravir (MK-0518)],Dose.FC.CTG,ENR+CD organoids; [7],0.108 log2 fold change
same,Z.CTG,ENR+CD organoids; dose 0.08 uM,0.258
same,Dose.FC.CTG,ENR+CD organoids; [8],0.094 log2 fold change
same,Z.CTG,ENR+CD organoids; dose 0.40 uM,0.224
same,Dose.FC.CTG,ENR+CD organoids; [9],0.197 log2 fold change
same,Z.CTG,ENR+CD organoids; dose 2.00 uM,0.471
same,Dose.FC.CTG,ENR+CD organoids; [10],0.170 log2 fold change
same,Z.CTG,ENR+CD organoids; dose 10.00 uM,0.407
same,Dose.FC.LYZ.NS,[1]; [7],0.187 log2 fold change
same,Z.LYZ.NS,[1]; dose 0.08 uM,1.627
same,Dose.FC.LYZ.NS,[1]; [8],0.035 log2 fold change
same,Z.LYZ.NS,[1]; dose 0.40 uM,0.302
same,Dose.FC.LYZ.NS,[1]; [9],0.029 log2 fold change
same,Z.LYZ.NS,[1]; dose 2.00 uM,0.254
same,Dose.FC.LYZ.NS,[1]; [10],0.042 log2 fold change
same,Z.LYZ.NS,[1]; dose 10.00 uM,0.366
same,Dose.FC.LYZ.S,[2]; [7],0.137 log2 fold change
same,Dose.FC.LYZ.S,[2]; [8],0.037 log2 fold change
same,Dose.FC.LYZ.S,[2]; [9],0.122 log2 fold change
same,Dose.FC.LYZ.S,[2]; [10],0.183 log2 fold change

# From patent US20220323406A1, “METHODS AND COMPOSITIONS FOR DIFFERENTIATING STEM CELLS” (Massachusetts Institute of Technology, priority 2019, published 2022)
